Source: patent US20250320203A1, “4-(3H-PYRAZOLO[4,3-F]QUINOLIN-7-YL)-N-(2-(DIMETHYLAMINO)ETHYL)BENZAMIDE- OR HYDROXAMIC ACID COMPOUNDS, COMPOSITIONS, AND METHODS OF USE” (Purdue Research Foundation, priority 2022, published 2025)

Legend:
FLT3 = biological target: T1, FLT3 (Homo sapiens, UniProt P36888); test: ADP Glo Kinase Assay, FLT3, 50 nM inhibitor; type: biochemical; conditions: 50 nM inhibitor conc.; means of triplicates; read-out: Percent Inhibition (%) FLT3
T1 sequence (P36888 27-993): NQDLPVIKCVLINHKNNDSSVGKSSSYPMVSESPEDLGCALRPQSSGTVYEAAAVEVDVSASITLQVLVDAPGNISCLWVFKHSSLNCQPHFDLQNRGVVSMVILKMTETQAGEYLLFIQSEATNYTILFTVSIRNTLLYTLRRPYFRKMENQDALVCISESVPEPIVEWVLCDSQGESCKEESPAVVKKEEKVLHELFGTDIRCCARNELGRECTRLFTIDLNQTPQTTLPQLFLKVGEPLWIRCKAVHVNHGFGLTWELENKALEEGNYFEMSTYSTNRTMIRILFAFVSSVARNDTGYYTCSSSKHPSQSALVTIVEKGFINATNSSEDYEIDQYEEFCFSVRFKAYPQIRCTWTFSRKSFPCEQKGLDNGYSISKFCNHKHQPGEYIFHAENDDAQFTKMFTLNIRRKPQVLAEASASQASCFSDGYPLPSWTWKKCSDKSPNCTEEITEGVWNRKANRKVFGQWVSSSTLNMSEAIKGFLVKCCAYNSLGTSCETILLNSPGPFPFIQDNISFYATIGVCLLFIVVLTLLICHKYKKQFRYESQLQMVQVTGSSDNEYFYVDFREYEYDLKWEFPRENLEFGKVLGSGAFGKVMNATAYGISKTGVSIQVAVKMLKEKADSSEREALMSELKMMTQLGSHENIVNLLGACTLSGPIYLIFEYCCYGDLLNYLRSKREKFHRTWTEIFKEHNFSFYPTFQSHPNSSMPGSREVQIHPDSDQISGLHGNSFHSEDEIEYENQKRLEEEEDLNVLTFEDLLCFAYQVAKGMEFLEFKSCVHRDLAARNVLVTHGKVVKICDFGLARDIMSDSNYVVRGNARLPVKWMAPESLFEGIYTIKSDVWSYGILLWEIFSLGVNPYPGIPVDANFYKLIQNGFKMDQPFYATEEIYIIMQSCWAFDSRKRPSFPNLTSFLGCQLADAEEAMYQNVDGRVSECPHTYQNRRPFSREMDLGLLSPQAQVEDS
Description: (§1) With the amide kinase inhibitor library established, kinase inhibition and AML cell line (Molm-14, which harbors FLT3-ITD) growth inhibition were analyzed (Table 1). More specifically, Haspin and FLT3 inhibition were evaluated in-house via ADP Glo Kinase Assay (Promega, Madison, WI). […] Values reported are means of triplicates.
(§2) Briefly, the ADP-Glo Kinase Assay Kit was used to determine inhibition of haspin. Kinase Buffer (SignalChem Cat #K01-09; 25 mM MOPS, pH 7.2, 12.5 mM β-glycerol-phosphate, 25 mM MgCl2, 2 mM EDTA) was supplemented with dithiothreitol (DTT) (0.2 mM) and bovine serum albumin (BSA) (40 μg/mL) immediately prior to use. Reaction volumes of 5 μL containing 9 ng/μL kinase, 10 μM ATP, 50 nM inhibitor, and the appropriate peptide substrate (20 μM) were incubated for 3 hours, and then quenched with an equal volume (5 μL) of GLO reagent. After 40 minutes, 10 μL DET reagent was added and incubated for 1 hour before visualization on a Cytation™ 5 Cell Imaging Multi-Mode Reader (BioTek).

Molm-14 cells (FLT3-ITD) = test: AML cell line growth inhibition (CellTiter-Blue), 50 nM; type: cell-based; conditions: Homo sapiens, 50 nM inhibitor conc., means of triplicates, read-out: Percent Inhibition (%) Molm-14 growth
Description: as §1
More specifically, cells were cultured to confluence in RPMI medium supplemented with 10% fetal bovine serum and 1× Penicillin-Streptomycin (Gibco™). Cells were plated at 5,000 cells/well in 96 well plates. After 24-hour incubation at 37° C. in a 5% CO2 incubator, compounds diluted in the same media were added to the indicated final concentration and allowed to incubate at 37° C. in a 5% CO2 incubator for 72 hours. Viability was determined using CellTiter-Blue® Cell Viability Assay (Promega, Madison, WI) with absorbance readings at 570 nm performed on a Cytation™ 5 Cell Imaging Multi-Mode Reader (BioTek) 3 hours after addition. Appropriate vehicle and cell-free controls were included. GI50 readings were confirmed by two scientists on two separate days.

haspin = biological target: T2, haspin (Homo sapiens, UniProt Q8TF76); test: ADP Glo Kinase Assay, haspin, 50 nM inhibitor; type: biochemical; conditions: 50 nM inhibitor conc.; means of triplicates; read-out: Percent Inhibition (%) Haspin
T2 sequence (Q8TF76 1-798): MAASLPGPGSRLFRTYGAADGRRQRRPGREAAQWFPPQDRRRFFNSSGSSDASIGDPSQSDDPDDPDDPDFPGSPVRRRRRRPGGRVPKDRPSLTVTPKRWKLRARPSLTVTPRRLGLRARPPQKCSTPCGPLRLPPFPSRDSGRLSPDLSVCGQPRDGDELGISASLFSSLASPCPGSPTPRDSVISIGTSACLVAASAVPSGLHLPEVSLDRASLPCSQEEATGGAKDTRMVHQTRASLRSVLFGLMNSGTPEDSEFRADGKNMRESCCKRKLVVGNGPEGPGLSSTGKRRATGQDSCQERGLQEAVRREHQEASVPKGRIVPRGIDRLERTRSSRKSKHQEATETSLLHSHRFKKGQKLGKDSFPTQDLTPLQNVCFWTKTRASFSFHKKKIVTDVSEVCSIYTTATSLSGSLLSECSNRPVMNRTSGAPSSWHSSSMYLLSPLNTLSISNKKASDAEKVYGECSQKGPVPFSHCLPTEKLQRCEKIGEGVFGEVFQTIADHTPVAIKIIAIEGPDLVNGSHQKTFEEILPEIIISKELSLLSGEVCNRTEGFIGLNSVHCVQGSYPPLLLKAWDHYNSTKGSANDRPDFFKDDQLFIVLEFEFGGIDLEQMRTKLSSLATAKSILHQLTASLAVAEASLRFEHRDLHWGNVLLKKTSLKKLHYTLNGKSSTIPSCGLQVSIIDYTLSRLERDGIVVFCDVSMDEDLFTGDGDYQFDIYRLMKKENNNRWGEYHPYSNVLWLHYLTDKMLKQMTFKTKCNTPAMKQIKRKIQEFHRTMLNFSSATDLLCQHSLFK
Description: as §1, §2

CDK12/CyclinK = CDK12/CyclinK (Homo sapiens, UniProt Q9NYV4); test: CDK12/CyclinK inhibition (IC50); type: biochemical
CDK2 = CDK2 (Homo sapiens, UniProt P24941); test: CDK2 inhibition (IC50); type: biochemical

CDK12/CyclinK, sequence (Q9NYV4 whole entry): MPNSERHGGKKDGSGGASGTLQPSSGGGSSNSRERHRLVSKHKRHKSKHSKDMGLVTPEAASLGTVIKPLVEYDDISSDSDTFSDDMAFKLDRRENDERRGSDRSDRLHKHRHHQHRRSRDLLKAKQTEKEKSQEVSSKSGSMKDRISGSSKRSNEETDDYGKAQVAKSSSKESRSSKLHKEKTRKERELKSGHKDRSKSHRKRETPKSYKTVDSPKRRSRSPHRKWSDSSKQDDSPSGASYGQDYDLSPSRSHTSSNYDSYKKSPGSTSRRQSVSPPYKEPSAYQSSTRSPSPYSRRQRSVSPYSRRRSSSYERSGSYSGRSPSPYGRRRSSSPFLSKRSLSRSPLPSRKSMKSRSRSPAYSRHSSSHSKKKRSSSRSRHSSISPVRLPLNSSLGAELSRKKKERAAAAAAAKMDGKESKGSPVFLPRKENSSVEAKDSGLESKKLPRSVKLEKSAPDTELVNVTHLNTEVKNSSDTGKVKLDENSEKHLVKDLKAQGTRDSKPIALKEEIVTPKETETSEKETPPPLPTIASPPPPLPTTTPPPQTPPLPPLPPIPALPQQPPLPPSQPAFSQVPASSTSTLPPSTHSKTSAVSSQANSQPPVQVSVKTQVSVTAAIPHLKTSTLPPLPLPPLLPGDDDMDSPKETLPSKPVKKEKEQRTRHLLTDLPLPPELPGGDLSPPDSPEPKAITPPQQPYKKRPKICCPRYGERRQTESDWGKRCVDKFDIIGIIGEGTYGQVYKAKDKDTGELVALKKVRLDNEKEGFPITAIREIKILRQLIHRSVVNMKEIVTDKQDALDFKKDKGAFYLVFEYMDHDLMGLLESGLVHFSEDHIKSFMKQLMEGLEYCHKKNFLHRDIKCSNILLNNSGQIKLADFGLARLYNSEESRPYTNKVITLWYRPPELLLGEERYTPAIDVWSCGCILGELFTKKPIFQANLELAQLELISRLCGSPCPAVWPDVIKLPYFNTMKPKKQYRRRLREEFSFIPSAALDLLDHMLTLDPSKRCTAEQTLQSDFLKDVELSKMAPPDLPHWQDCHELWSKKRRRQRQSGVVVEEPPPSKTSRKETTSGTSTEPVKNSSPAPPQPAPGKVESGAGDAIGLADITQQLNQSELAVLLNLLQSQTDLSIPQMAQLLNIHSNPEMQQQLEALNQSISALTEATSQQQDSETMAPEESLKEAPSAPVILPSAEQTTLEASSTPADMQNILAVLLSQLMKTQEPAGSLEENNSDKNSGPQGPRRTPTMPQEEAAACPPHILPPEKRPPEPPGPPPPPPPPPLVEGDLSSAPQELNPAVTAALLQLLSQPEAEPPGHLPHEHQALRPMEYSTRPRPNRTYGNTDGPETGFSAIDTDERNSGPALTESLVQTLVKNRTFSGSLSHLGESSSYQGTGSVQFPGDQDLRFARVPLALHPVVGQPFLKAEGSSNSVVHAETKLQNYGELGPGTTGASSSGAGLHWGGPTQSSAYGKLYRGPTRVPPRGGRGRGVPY
CDK12/CyclinK, sequence (O75909 whole entry partner): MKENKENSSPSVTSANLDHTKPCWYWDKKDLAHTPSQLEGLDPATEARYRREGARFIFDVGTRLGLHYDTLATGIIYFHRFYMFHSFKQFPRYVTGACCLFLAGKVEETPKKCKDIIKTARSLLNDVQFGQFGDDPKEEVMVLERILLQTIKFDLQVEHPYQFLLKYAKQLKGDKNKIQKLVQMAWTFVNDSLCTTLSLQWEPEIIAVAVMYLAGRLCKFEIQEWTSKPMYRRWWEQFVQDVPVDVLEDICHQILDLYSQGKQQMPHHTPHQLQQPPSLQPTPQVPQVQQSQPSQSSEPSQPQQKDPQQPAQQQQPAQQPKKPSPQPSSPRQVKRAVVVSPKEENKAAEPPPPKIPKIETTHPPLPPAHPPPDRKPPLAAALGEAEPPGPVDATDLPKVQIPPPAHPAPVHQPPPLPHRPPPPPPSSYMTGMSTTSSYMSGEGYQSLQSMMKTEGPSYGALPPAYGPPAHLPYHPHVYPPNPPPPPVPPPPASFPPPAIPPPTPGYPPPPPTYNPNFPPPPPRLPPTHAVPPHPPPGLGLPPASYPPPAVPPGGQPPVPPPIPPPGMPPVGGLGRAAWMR

Row | SMILES | inhibition at 0.05 µM (FLT3) | inhibition at 0.05 µM (haspin) | IC50 (CDK12/CyclinK) | IC50 (CDK2) | inhibition at 0.05 µM (Molm-14 cells (FLT3-ITD))
1 | O=C(NCc1c[nH]cn1)c1ccc(-c2nc3ccc4[nH]ncc4c3c3c2CCCC3)cc1 [Compound 4, N-((1H-imidazol-4-yl)methyl)-4-(8,9,10,11-tetrahydro-3H-pyrazolo[4,3-a]phenanthridin-7-yl)benzamide] | 49% | 54% |  |  | 67%
2 | O=C(NCCn1ccnc1)c1ccc(-c2nc3ccc4[nH]ncc4c3c3c2CCCC3)cc1 [Compound 5, N-(2-(1H-imidazol-1-yl)ethyl)-4-(8,9,10,11-tetrahydro-3H-pyrazolo[4,3-a]phenanthridin-7-yl)benzamide] | 31% | 33% |  |  | 42%
3 | O=C(NCc1ncc[nH]1)c1ccc(-c2nc3ccc4[nH]ncc4c3c3c2CCCC3)cc1 [Compound 6, N-((1HI-imidazol-2-yl)methyl)-4-(8,9,10,11-tetrahydro-3H-pyrazolo[4,3-a]phenanthridin-7-yl)benzamide] | 76% | 77% |  |  | 84%
4 | Cn1ccnc1CNC(=O)c1ccc(-c2nc3ccc4[nH]ncc4c3c3c2CCCC3)cc1 [Compound 7, N-((1-methyl-1H-imidazol-2-yl)methyl)-4-(8,9,10,11-tetrahydro-3H-pyrazolo[4,3-a]phenanthridin-7-yl)benzamide] | 14% | 26% |  |  | 21%
5 | O=C(NCc1ncn[nH]1)c1ccc(-c2nc3ccc4[nH]ncc4c3c3c2CCCC3)cc1 [Compound 8, N-((4H-1,2,4-triazol-3-yl)methyl)-4-(8,9,10,11-tetrahydro-3H-pyrazolo[4,3-a]phenanthridin-7-yl)benzamide] | 49% | 57% |  |  | 48%
6 | O=C(NCc1ncc[nH]1)c1ccc(-c2nc3ccc4[nH]ncc4c3c3c2CCCC3)c(F)c1 [Compound 9, N-((1H-imidazol-2-yl)methyl)-3-fluoro-4-(8,9,10,11-tetrahydro-3H-pyrazolo[4,3-a]phenanthridin-7-yl)benzamide] | 88% | 53% |  |  | 87%
7 | O=C(NCc1nnn[nH]1)c1ccc(-c2nc3ccc4[nH]ncc4c3c3c2CCCC3)cc1 [Compound 10, N-((1H-tetrazol-5-yl)methyl)-4-(8,9,10,11-tetrahydro-3H-pyrazolo[4,3-a]phenanthridin-7-yl)benzamide] | 51% | 57% |  |  | 50%
8 | O=C(NCc1ncc[nH]1)c1ccc(-c2nc3ccc4[nH]ncc4c3c3c2CCCC3)cc1F [Compound 11, N-((1H-imidazol-2-yl)methyl)-2-fluoro-4-(8,9,10,11-tetrahydro-3H-pyrazolo[4,3-a]phenanthridin-7-yl)benzamide] | 85% | 76% |  |  | 80%
9 | O=C(NCc1cc[nH]c1)c1ccc(-c2nc3ccc4[nH]ncc4c3c3c2CCCC3)cc1 [Compound 12, N-((1H-pyrrol-3-yl)methyl)-4-(8,9,10,11-tetrahydro-3H-pyrazolo[4,3-a]phenanthridin-7-yl)benzamide] | 46% | 41% |  |  | 39%
10 | O=C(NCc1nccs1)c1ccc(-c2nc3ccc4[nH]ncc4c3c3c2CCCC3)cc1 [Compound 13, 4-(8,9,10,11-tetrahydro-3HI-pyrazolo[4,3-a]phenanthridin-7-yl)-N-(thiazol-2-ylmethyl)benzamide] | 53% | 68% |  |  | 55%
11 | Cc1c[nH]c(CNC(=O)c2ccc(-c3nc4ccc5[nH]ncc5c4c4c3CCCC4)cc2)n1 [Compound 14, N-((4-methyl-1H-imidazol-2-yl)methyl)-4-(8,9,10,11-tetrahydro-3H-pyrazolo[4,3-a]phenanthridin-7-yl)benzamide] | 94% | 97% |  |  | 
12 | O=C(NCCc1ncc[nH]1)c1ccc(-c2nc3ccc4[nH]ncc4c3c3c2CCCC3)cc1 [Compound 15, N-(2-(1H-imidazol-2-yl)ethyl)-4-(8,9,10,11-tetrahydro-3H-pyrazolo[4,3-a]phenanthridin-7-yl)benzamide] | 71% | 78% |  |  | 73%

Continued, in another order:

Row | inhibition at 0.05 µM (FLT3) | inhibition at 0.05 µM (haspin) | IC50 (CDK12/CyclinK) | IC50 (CDK2) | SMILES | inhibition at 0.05 µM (Molm-14 cells (FLT3-ITD))
13 |  |  | 9 nM | 4 nM | O=C(NO)c1ccc(-c2nc3ccc4[nH]ncc4c3c3c2CCCC3)cc1 [Compound HSD1993, N-hydroxy-4-(8,9,10,11-tetrahydro-3H-pyrazolo[4,3-a]phenanthridin-7-yl)benzamide] | 
14 |  |  | 27 nM | 7 nM | CN(C)CCNC(=O)c1ccc(-c2nc3ccc4[nH]ncc4c3c3c2CCCC3)cc1 [Compound HSH2177, N-(2-(dimethylamino)ethyl)-4-(8,9,10,11-tetrahydro-3H-pyrazolo[4,3-a]phenanthridin-7-yl)benzamide] | 
15 | 81% | 39% |  |  | FC(F)(F)c1n[nH]cc1-c1nc2ccc3[nH]ncc3c2c2c1CCCC2 [HSD1169, reference compound] | 90%
16 |  |  |  | 185 nM | NC(=O)c1ccc(-c2nc3ccc4[nH]ncc4c3c3c2CCCC3)cc1 [HSD1217, reference compound] | 
17 |  |  | 60 nM |  | CN(C)C/C=C/C(=O)Nc1ccc(C(=O)N2CCC[C@@H](Nc3ncc(Cl)c(-c4c[nH]c5ccccc45)n3)C2)cc1 [THZ531, reference compound] | 
